In the supplement of paper PMC10307832 one finds relative viability data, which are given here for five cell lines.

Common to all, as to assay: relative viability (nuclei count vs DMSO), 5 days (fraction); higher = more cells survive
Compound in assay [1]: CC(C)C[C@H](NC(=O)[C@H](CCc1ccccc1)NC(=O)CN1CCOCC1)C(=O)N[C@@H](Cc1ccccc1)C(=O)N[C@@H](CC(C)C)C(=O)[C@@]1(C)CO1 [Carfilzomib] + CS(=O)(=O)CCNCc1ccc(-c2ccc3ncnc(Nc4ccc(OCc5cccc(F)c5)c(Cl)c4)c3c2)o1 [Lapatinib] (partner 2 µM)
In a few lines:
(§1)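 Lung cancer cell lines, seeded in 1536-well plates, were treated the following day by pin tool with a single drug or with five library-drug doses (not always all listed) in √10 steps on top of a fixed anchor-drug dose. Cells were fixed and nuclei stained in one step after 5 days, and nuclei were counted. Relative viability is the nuclei count for treated wells divided by that for vehicle wells, reported as medians of duplicate plates.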

Compound in assay [2]: O=C(c1cc(Cc2n[nH]c(=O)c3ccccc23)ccc1F)N1CCN(C(=O)C2CC2)CC1 [Olaparib] + COc1cccc2cc(-c3nc([C@H]4CC[C@H](C(=O)O)CC4)n4ncnc(N)c34)[nH]c12 [OSI-027] (partner 0.5 µM)
In a few lines: as §1

Compound in assay [3]: O=C(c1cc(Cc2n[nH]c(=O)c3ccccc23)ccc1F)N1CCN(C(=O)C2CC2)CC1 [Olaparib] + CS(=O)(=O)N1CCN(Cc2cc3nc(-c4cccc5[nH]ncc45)nc(N4CCOCC4)c3s2)CC1 [Pictilisib] (partner 1 µM)
In a few lines: as §1

Compound in assay [4]: O=C(c1cc(Cc2n[nH]c(=O)c3ccccc23)ccc1F)N1CCN(C(=O)C2CC2)CC1 [Olaparib] + Nc1nc2[nH]cc(CCc3ccc(C(=O)N[C@@H](CCC(=O)O)C(=O)O)cc3)c2c(=O)[nH]1 [Pemetrexed] (partner 0.2 µM)
In a few lines:
as §1

On to LCLC-97TM1, for which the relative viability was 0.73 in assay [1] (first compound 0.001 µM); 1.58 in assay [1] (first compound 0.003162 µM); 0.957 in assay [1] (first compound 0.01 µM); 0.282 in assay [1] (first compound 0.03162 µM); 0.142 in assay [1] (first compound 0.1 µM); 0.525 in assay [2] (first compound 0.08 µM). Besides, the relative viability in assay [2] (first compound 0.253 µM) turned out to be 0.527; in assay [2] (first compound 2.53 µM) it was 0.587; in assay [2] (first compound 8 µM) it was 0.323; in assay [3] (first compound 0.08 µM), 0.263; in assay [3] (first compound 0.253 µM) it was 0.233; in assay [3] (first compound 2.53 µM), 0.174. Besides, the relative viability was 0.152 in assay [3] (first compound 8 µM); 0.209 in assay [4] (first compound 0.08 µM); 0.209 in assay [4] (first compound 0.253 µM); 0.2 in assay [4] (first compound 2.53 µM); 0.141 in assay [4] (first compound 8 µM).

As for LXF-289, the relative viability in assay [1] (first compound 0.001 µM) came to 0.921; in assay [1] (first compound 0.003162 µM) it was 0.942; in assay [1] (first compound 0.01 µM) it was 0.917; in assay [1] (first compound 0.03162 µM), 0.0958; in assay [1] (first compound 0.1 µM), 0.101; in assay [2] (first compound 0.08 µM), 0.955. Besides, the relative viability amounted to 0.761 in assay [2] (first compound 0.253 µM); 0.759 in assay [2] (first compound 2.53 µM); 0.755 in assay [2] (first compound 8 µM); 0.825 in assay [3] (first compound 0.08 µM); 0.713 in assay [3] (first compound 0.253 µM); 0.729 in assay [3] (first compound 2.53 µM). Also, the relative viability amounted to 0.74 in assay [3] (first compound 8 µM); 1 in assay [4] (first compound 0.08 µM); 0.883 in assay [4] (first compound 0.253 µM); 0.963 in assay [4] (first compound 2.53 µM); 1 in assay [4] (first compound 8 µM).

Consider HCC-78, for which the relative viability in assay [1] (first compound 0.001 µM) was found to be 0.791; in assay [1] (first compound 0.003162 µM) it was 0.701; in assay [1] (first compound 0.01 µM), 0.9; in assay [1] (first compound 0.03162 µM), 0.165; in assay [1] (first compound 0.1 µM), 0.142; in assay [2] (first compound 0.08 µM), 0.373. Besides, the relative viability was 0.379 in assay [2] (first compound 0.253 µM); 0.349 in assay [2] (first compound 2.53 µM); 0.332 in assay [2] (first compound 8 µM); 0.241 in assay [3] (first compound 0.08 µM); 0.204 in assay [3] (first compound 0.253 µM); 0.208 in assay [3] (first compound 2.53 µM). Moreover, the relative viability in assay [3] (first compound 8 µM) amounted to 0.196; in assay [4] (first compound 0.08 µM) it was 0.885; in assay [4] (first compound 0.253 µM) it was 0.886; in assay [4] (first compound 2.53 µM), 0.906; in assay [4] (first compound 8 µM), 0.908.

Turning to NCI-H2405, the relative viability in assay [1] (first compound 0.003162 µM) was 1.42; in assay [1] (first compound 0.01 µM), 1.05; in assay [1] (first compound 0.03162 µM), 0.645; in assay [1] (first compound 0.1 µM), 0.152; in assay [2] (first compound 0.08 µM), 0.717; in assay [2] (first compound 0.253 µM) it was 0.625. The relative viability in assay [2] (first compound 2.53 µM) is 0.636; in assay [2] (first compound 8 µM), 0.583; in assay [3] (first compound 0.08 µM), 0.524; in assay [3] (first compound 0.253 µM), 0.406; in assay [3] (first compound 2.53 µM), 0.426; in assay [3] (first compound 8 µM), 0.469. Further, the relative viability was found to be 1.02 in assay [4] (first compound 0.08 µM), 0.931 in assay [4] (first compound 0.253 µM), 1.02 in assay [4] (first compound 2.53 µM) and 1.01 in assay [4] (first compound 8 µM).

As for LC-2-ad, the relative viability in assay [1] (first compound 0.001 µM) worked out at 0.861; in assay [1] (first compound 0.003162 µM), 1.14; in assay [1] (first compound 0.01 µM) it was 0.984; in assay [1] (first compound 0.03162 µM) it was 0.153; in assay [1] (first compound 0.1 µM), 0.12; in assay [2] (first compound 0.08 µM) it was 0.926. Besides, the relative viability in assay [2] (first compound 0.253 µM) was 0.731; in assay [2] (first compound 2.53 µM), 0.856; in assay [2] (first compound 8 µM), 0.796; in assay [3] (first compound 0.08 µM), 0.529; in assay [3] (first compound 0.253 µM), 0.523; in assay [3] (first compound 2.53 µM), 0.491. Moreover, the relative viability was found to be 0.336 in assay [3] (first compound 8 µM); 0.25 in assay [4] (first compound 0.08 µM); 0.252 in assay [4] (first compound 0.253 µM); 0.28 in assay [4] (first compound 2.53 µM); 0.276 in assay [4] (first compound 8 µM).
